Legend:
colon carcinoma = assay: Experiment 2: clinical treatment of colon carcinoma with metastatic cancer in the liver; type: in vivo, human
Procedure: Person, colon carcinoma with metastatic cancer of 13 cm×10 cm×8 cm in the liver, abdominal dropsy observed.
The patient was subjected to abdominal surgery on June 4, 1979 but extraction of the cancer was impossible and the incised abdoment was immediately sutured.
Administration of 4,6-O-benzylidene-D-glucopyranose at a dosage of 20 mg/day/man (in the form of a physiological saline solution having an active ingredient concentration of 4 mg/ml) by intraperitoneal injection was stated on Aug. 25, 1979. The preparation for injection was prepared according to Example 1. In about one month, the abdominal dropsy disappeared, appetite improved and the overall body condition improved.
A C.T. scan of the liver of the patient before the start of the intraperitoneal injection, that was taken on Aug. 25, 1979, is shown in FIG. 1-A (the metastic lesion (A) appears on the left-side of the tomogram), and a C.T. scan of the same region taken on Dec.

W2K.11 cells = assay: SV40 test: inhibition of proliferation of SV40-transformed malignant cells; type: cell-based, C3H mice; settings: Mus musculus, read-out: proliferation inhibition ratio
Procedure: The SV40 (Simian Virus 40) method was adopted for determination of the carinostatic activity. According to this method, normal kidney cells of mice are transformed to malignant cells by the oncogenic virus SV40, the malignant cells are cultured, the test compound is added to the culture medium, the ratio of inhibition of proliferation of the cells is calculated and the carcinostatic activity is determined based on the calculated value. This method has recently been widely used because accurate results can be obtained [see proceedings of the Society for Experimental Biology and Medicine, 114, pages 721-727 (1963)].
The W2K.11 cells obtained by a malignant transformation of normal kidney cells of C3H mice by the oncogenic virus SV40 were used as cells for the test, and they were cultured according to the following method.
(1) Preparation of Culture Medium:
9.4 g of Eagle MEM Medium (manufactured by Nissui Seiyaku K.K.) was dissolved in 900 ml of distilled water and the solution was sterilized at 120° C., under pressure for 15 minutes. After cooling the sterilized solution, 100 ml of calf serum and 3 to 5 ml of a 10% aqueous solution of sodium hydrogencarbonate sterilized separately at 115° C. under pressure for 15 minutes were added to the solution to adjust the pH to 7.1 to 7.2. Just before the resulting culture medium was used, 10 ml of a L-glutamine solution (2.92 g/100 ml) filtered through A millipore filter was added thereto.
(2) Preparation of Test Cells:
The frozen test cells preserved in a deep freezer (-80° C.) with dimethyl sulfoxide added to the above culture medium to a final concentration of 10% were […] at room temperature and subjected to centrifugal separation under 670×g for 5 minutes. The supernatant was discarded and the precipitated cells were suspended in 50 ml of the culture medium. Then, the culture medium was transferred to a Roux flask and culturing was conducted at 37° C. The cells began to grow while adhering to the bottom of the flask, and sufficient growth was obtained in 3 to 4 days. […]

[1] = acute toxicity, oral administration or subcutaneous injection in mice; type: in vivo; settings: mouse, in vivo; oral administration in mice
Procedure: (§1) The LD50 (mg/kg) value of the compound which is the active ingredient of the present invention, for example, in case of oral administration in mice is about 3000 mg/kg.

mice = assay: as above; type: in vivo; settings: subcutaneous injection or oral administration in mice
Procedure: as §1

[2] = toxicity / side effects on continuous administration; type: in vivo
tongue cancer = assay: Experiment 3: clinical treatment of tongue cancer; type: in vivo, human
[3] = system: peritonitis cartinimatosa; assay: Experiment 4: clinical treatment of peritonitis carcinomatosa; type: in vivo, human; settings: 200 mg/day/man intravenous infusion
Procedure: Administration of 4,6-O-benzylidene-D-glucopyranose at a dosage of 200 mg/day/man by intravenous infusion was started for the treatment of the patient.

primary liver tumor = assay: Experiment 5: clinical treatment of primary liver tumor; type: in vivo, human; settings: 200 mg/day/man intravenous infusion
Procedure: 4,6-O-benzylidene-D-glucopyranose was continuously administered at a dosage of 200 mg/day/man by intravenous infusion.

stomach cancer = assay: Experiment 6: clinical treatment of stomach cancer; type: in vivo, human; settings: 200 mg/day/man intravenous infusion
Procedure: Patient: Stomach cancer of the terminal stage, the stomach extracted but many metastasized lesion in abdominal cavity, peritonitis cartinimatosa observed. […] The preparation for infusion was prepared according to Example 1. […] However, the patient died about 3 months after the start of administration.

[4] = system: colon carcinoma, tongue cancer, peritonitis carcinomatosa, liver cancer and stomach cancer; assay: clinical experiments, summary statement; type: in vivo, human; settings: intravenous, about 20 to about 200 mg/day/man
[5] = stability and solubility, general statement; type: physicochemical
[6] = 20 mg/day/man intraperitoneal injection, about 3 months
[7] = 20 mg/day/man intraperitoneal injection, about one month
[8] = 200 mg/day/man intravenous infusion, after 10 days

O=c1[nH]c(=O)n(C2CCCO2)cc1F (stereo not shown) [FT 207, reference compound]
effect of prior treatment (colon carcinoma; FT 207 treatment with cobalt 60 radiotherapy, initiated before the operation): no effect had been observed

OC1O[C@@H]2COC(c3ccccc3)O[C@H]2[C@H](O)[C@H]1O (stereo partly drawn) [4,6-O-benzylidene-D-glucopyranose]
inhibition at 125 µg/mL (W2K.11 cells; 72 h, 125 mcg/ml): 23%
inhibition at 250 µg/mL (W2K.11 cells; 72 h, 250 mcg/ml): 37%
inhibition at 500 µg/mL (W2K.11 cells; 500 mcg/ml, 72 hours of treatment): 72%
LD50 [1]: ~3000 mg/kg
acute toxicity compared with other carcinostatic agents (mice): much lower than that of other carinostatic agents
toxicity ([2]; continuous administration at the above-mentioned dosage): no toxicity is observed
toxicity, general statement ([2]; in vivo): lowly toxic
excretion from a living body ([2]; when administered): readily excreted from a living body
side effects ([2]; when administered): no side effects are caused
CEA unit value (the hepatic function test) (colon carcinoma; [6]): remarkably reduced
metastatic lesion in the liver (colon carcinoma; [6]): almost disappeared
metastatic lesion in the liver (colon carcinoma; 20 mg/day/man intraperitoneal injection, about 4 months, C.T. scan FIG. 1-A vs FIG. 1-B): completely disappeared
abdominal dropsy (colon carcinoma; [7]): disappeared
appetite (colon carcinoma; [7]): improved
metastatic lesion in the liver (C.T. scan) (colon carcinoma; [7]): contraction of the metastatic lesion in the liver had started
overall body condition (colon carcinoma; [7]): improved
patient outcome (colon carcinoma; after treatment, 20 mg/day/man intraperitoneal injection): has lead a normal life since then
histopathology of the granular substance released from the submaxillar tumor (tongue cancer; 200 mg/day/man intravenous infusion): composed of histopathologically keratinized squamous cells
malignant lesion of the tongue (photographs FIGS. 2-A, 3-A vs 2-B, 3-B) (tongue cancer; 200 mg/day/man intravenous infusion, Oct. 15 to Nov. 19, 1979): disappeared
submaxillar tumor (tongue cancer; [8]): softened and began to release a granular substance
tumor on the tongue (tongue cancer; [8]): began to disappear
patient outcome (tongue cancer; 200 mg/day/man intravenous infusion, terminal stage): died after about one month of treatment
patient outcome [3]: died of paritonitis periforative about one month after the start of treatment
abdominal dropsy ([3]; one week): disappeared
cancer metastasized to the skin ([3]; one week): contraction of the cancer metastasized to the skin
condition of the disease ([3]; one week): subjective and objective improvements
abdominal dropsy (primary liver tumor; about one month): reduction in the abdominal dropsy
liver tumor (primary liver tumor; about one month): prominent contraction of the liver tumor
patient outcome (primary liver tumor; terminal stage): died after about four months of treatment
abdominal dropsy (stomach cancer; one month): disappeared
subjective symptoms (stomach cancer; one month): remarkable improvement
time to death after start of administration (stomach cancer; terminal stage): about 3 months
clinical effect [4]: prominent effect
stability [5]: very stable
water solubility [5]: water-soluble

N#C[C@H](O[C@@H]1O[C@H](CO[C@@H]2O[C@H](CO)[C@@H](O)[C@H](O)[C@H]2O)[C@@H](O)[C@H](O)[C@H]1O)c1ccccc1 [laetrile, amygdalin, reference compound]
effect of prior treatment (tongue cancer; prior conventional chemotherapy, BCG, radiotherapy and laetrile): no effect could be observed
